Key:
Assay type in all cases: in vivo
[1] = tested on: Diabrotica balteata (Corn Root Worm); assay: Activity against Diabrotica balteata (corn root worm); settings: 96 h, application rate of 200 ppm, maize sprouts sprayed, L2 larvae, 4 days after infestation, read-out: effect in at least one of the two categories (mortality or growth inhibition)
Protocol: Example B3: Activity Against Diabrotica balteata (Corn Root Worm)
Maize sprouts placed onto an agar layer in 24-well microtiter plates were treated with aqueous test solutions prepared from 10′000 ppm DMSO stock solutions by spraying. After drying, the plates were infested with L2 larvae (6 to 10 per well). The samples were assessed for mortality and growth inhibition in comparison to untreated samples 4 days after infestation.

[2] = tested on: Carpocapsa (Cydia) Pomonella (Codling Moth); assay: Activity against Carpocapsa (Cydia) pomonella (codling moth), larvicide, feeding/contact; settings: 336 h, application rate of 12.5 ppm, paraffin-coated diet cubes sprayed, L1 larvae, 14 days after infestation, 26-27° C.
Protocol: Example B10: Activity Against Carpocapsa (Cydia) Pomonella (Codling Moth) Larvicide, Feeding/Contact
Diet cubes coated with paraffin were sprayed with diluted test solutions in an application chamber. After drying off the treated cubes (10 replicates) were infested with 1 L1 larvae. Samples were incubated at 26-27° C. and checked 14 days after infestation for mortality and growth inhibition.

[3] = tested on: Myzus persicae (Green Peach Aphid); assay: Activity against Myzus persicae (green peach aphid), feeding/contact activity; settings: foliar, 144 h, application rate of 200 ppm, sunflower leaf discs sprayed, aphid population of mixed ages, 6 days after infestation
Protocol: Example B6: Activity Against Myzus persicae (Green Peach Aphid) Feeding/Contact Activity
Sunflower leaf discs were placed onto agar in a 24-well microtiter plate and sprayed with aqueous test solutions prepared from 10′000 ppm DMSO stock solutions. After drying, the leaf discs were infested with an aphid population of mixed ages. The samples were assessed for mortality 6 days after infestation.

[4] = tested on: Chilo suppressalis (Striped Rice Stemborer); assay: Activity against Chilo suppressalis (striped rice stemborer); settings: 144 h, application rate of 200 ppm, artificial diet, L2 larvae, 6 days after infestation, read-out: control (at least one of mortality, anti-feedant effect, growth inhibition)
Protocol: Example B2: Activity Against Chilo suppressalis (Striped Rice Stemborer)
24-well microtiter plates with artificial diet were treated with aqueous test solutions prepared from 10′000 ppm DMSO stock solutions by pipetting. After drying, the plates were infested with L2 larvae (6-8 per well). The samples were assessed for mortality, anti-feeding effect, and growth inhibition in comparison to untreated samples 6 days after infestation. Control of Chilo suppressalis by a test sample is given when at least one of the categories mortality, anti-feedant effect, and growth inhibition is higher than the untreated sample.

[5] = tested on: Euschistus heros (Neotropical Brown Stink Bug); assay: Activity against Euschistus heros (neotropical brown stink bug); settings: 120 h, application rate of 200 ppm, soybean leaves sprayed, N2 nymphs, 5 days after infestation, read-out: effect in at least one of the two categories (mortality or growth inhibition)
Protocol: Example B4: Activity Against Euschistus heros (Neotropical Brown Stink Bug)
Soybean leaves on agar in 24-well microtiter plates were sprayed with aqueous test solutions prepared from 10′000 ppm DMSO stock solutions. After drying the leaves were infested with N2 nymphs. The samples were assessed for mortality and growth inhibition in comparison to untreated samples 5 days after infestation.

[6] = tested on: Spodoptera littoralis (Egyptian Cotton Leaf Worm); assay: Activity against Spodoptera littoralis (Egyptian cotton leaf worm); settings: foliar, 72 h, application rate of 200 ppm, cotton leaf discs sprayed, L1 larvae, 3 days after infestation, read-out: control (at least one of mortality, anti-feedant effect, growth inhibition)
Protocol: Example B8: Activity Against Spodoptera littoralis (Egyptian Cotton Leaf Worm)
Cotton leaf discs were placed onto agar in 24-well microtiter plates and sprayed with aqueous test solutions prepared from 10′000 ppm DMSO stock solutions. After drying the leaf discs were infested with five L1 larvae. The samples were assessed for mortality, anti-feeding effect, and growth inhibition in comparison to untreated samples 3 days after infestation. Control of Spodoptera littoralis by a test sample is given when at least one of the categories mortality, anti-feedant effect, and growth inhibition is higher than the untreated sample.

[7] = tested on: Bemisia tabaci (Cotton White Fly); assay: Activity against Bemisia tabaci (cotton white fly), feeding/contact activity; settings: foliar, 144 h, application rate of 200 ppm, cotton leaf discs sprayed, adult white flies, 6 days after incubation
Protocol: Example B1: Activity Against Bemisia tabaci (Cotton White Fly) Feeding/Contact Activity
Cotton leaf discs were placed on agar in 24-well microtiter plates and sprayed with aqueous test solutions prepared from 10′000 ppm DMSO stock solutions. After drying the leaf discs were infested with adult white flies. The samples were checked for mortality 6 days after incubation.

[8] = tested on: Plutella xylostella (Diamond Back Moth); assay: Activity against Plutella xylostella (diamond back moth); settings: 192 h, application rate of 200 ppm, artificial diet, Plutella eggs, 8 days after infestation, read-out: effect in at least one of the two categories (mortality or growth inhibition)
Protocol: Example B7: Activity Against Plutella xylostella (Diamond Back Moth)
24-well microtiter plates with artificial diet were treated with aqueous test solutions prepared from 10′000 ppm DMSO stock solutions by pipetting. After drying, Plutella eggs were pipetted through a plastic stencil onto a gel blotting paper and the plate was closed with it. The samples were assessed for mortality and growth inhibition in comparison to untreated samples 8 days after infestation.

[9] = tested on: Myzus persicae (Green Peach Aphid); assay: Activity against Myzus persicae (green peach aphid), systemic activity; settings: 144 h, test rate of 24 ppm, roots of infested pea seedlings in test solution (systemic), 6 days
Protocol: Example B9: Activity Against Myzus persicae (Green Peach Aphid) Systemic Activity
Roots of pea seedlings infested with an aphid population of mixed ages were placed directly into aqueous test solutions prepared from 10′000 DMSO stock solutions. The samples were assessed for mortality 6 days after placing seedlings into test solutions.

CCS(=O)(=O)c1cc(C2(C#N)CC2)cnc1N1Cc2cc3c(cc2C1=O)OC(F)(F)O3 [Compound P1, 1-[6-(2,2-difluoro-7-oxo-5H-[1,3]dioxolo[4,5-f]isoindol-6-yl)-5-ethylsulfonyl-3-pyridyl]cyclopropanecarbonitrile]
≥ 80%: percent effect (mortality or growth inhibition) at 200 ppm [1] | mortality at 12.5 ppm [2] | mortality at 200 ppm [3] | percent control (mortality, anti-feedant effect or growth inhibition) at 200 ppm [4] | percent effect (mortality or growth inhibition) at 200 ppm [5] | percent control (mortality, anti-feedant effect or growth inhibition) at 200 ppm [6] | mortality at 200 ppm [7] | percent effect (mortality or growth inhibition) at 200 ppm [8]

CCS(=O)(=O)c1c(N2Cc3cc4c(cc3C2=O)OC(F)(F)O4)nc(-c2cnn(CC3CC3)c2)n1C [Compound P9, 6-[2-[1-(cyclopropylmethyl)pyrazol-4-yl]-5-ethylsulfonyl-1-methyl-imidazol-4-yl]-2,2-difluoro-5H-[1,3]dioxolo[4,5-f]isoindol-7-one]
≥ 80%: mortality at 24 ppm [9] | percent effect (mortality or growth inhibition) at 200 ppm [1] | mortality at 200 ppm [3] | percent control (mortality, anti-feedant effect or growth inhibition) at 200 ppm [4] | percent effect (mortality or growth inhibition) at 200 ppm [5] | percent control (mortality, anti-feedant effect or growth inhibition) at 200 ppm [6] | percent effect (mortality or growth inhibition) at 200 ppm [8]

CCS(=O)(=O)c1c(N2Cc3cc4c(cc3C2=O)OC(F)(F)O4)nc(-c2cnn(CC(F)(F)F)c2)n1C [Compound P14, 6-[5-ethylsulfonyl-1-methyl-2-[1-(2,2,2-trifluoroethyl)pyrazol-4-yl]imidazol-4-yl]-2,2-difluoro-5H-[1,3]dioxolo[4,5-f]isoindol-7-one]
≥ 80%: mortality at 24 ppm [9] | percent effect (mortality or growth inhibition) at 200 ppm [1] | mortality at 200 ppm [3] | percent control (mortality, anti-feedant effect or growth inhibition) at 200 ppm [4] | percent effect (mortality or growth inhibition) at 200 ppm [5] | percent control (mortality, anti-feedant effect or growth inhibition) at 200 ppm [6] | percent effect (mortality or growth inhibition) at 200 ppm [8]

CCS(=O)(=O)c1c(N2Cc3cc4c(cc3C2=O)OC(F)(F)O4)nc(-c2ncccn2)n1C [Compound P15, 6-(5-ethylsulfonyl-1-methyl-2-pyrimidin-2-yl-imidazol-4-yl)-2,2-difluoro-5H-[1,3]dioxolo[4,5-f]isoindol-7-one]
≥ 80%: mortality at 24 ppm [9] | percent effect (mortality or growth inhibition) at 200 ppm [1] | mortality at 200 ppm [3] | percent control (mortality, anti-feedant effect or growth inhibition) at 200 ppm [4] | percent effect (mortality or growth inhibition) at 200 ppm [5] | percent control (mortality, anti-feedant effect or growth inhibition) at 200 ppm [6] | percent effect (mortality or growth inhibition) at 200 ppm [8]

CCS(=O)(=O)c1ccc(-c2ncccn2)nc1N1Cc2cc3c(cc2C1=O)OC(F)(F)O3 [Compound P16, 6-(3-ethylsulfonyl-6-pyrimidin-2-yl-2-pyridyl)-2,2-difluoro-5H-[1,3]dioxolo[4,5-f]isoindol-7-one]
≥ 80%: mortality at 24 ppm [9] | percent effect (mortality or growth inhibition) at 200 ppm [1] | mortality at 200 ppm [3] | percent control (mortality, anti-feedant effect or growth inhibition) at 200 ppm [4] | percent effect (mortality or growth inhibition) at 200 ppm [5] | percent control (mortality, anti-feedant effect or growth inhibition) at 200 ppm [6] | percent effect (mortality or growth inhibition) at 200 ppm [8]

CCS(=O)(=O)c1c(N2Cc3cc4c(cc3C2=O)OC(F)(F)O4)nc(-c2cnn(C(F)F)c2)n1C [Compound P20, 6-[2-[1-(difluoromethyl)pyrazol-4-yl]-5-ethylsulfonyl-1-methyl-imidazol-4-yl]-2,2-difluoro-5H-[1,3]dioxolo[4,5-f]isoindol-7-one]
≥ 80%: percent effect (mortality or growth inhibition) at 200 ppm [1] | percent control (mortality, anti-feedant effect or growth inhibition) at 200 ppm [4] | percent effect (mortality or growth inhibition) at 200 ppm [5] | percent control (mortality, anti-feedant effect or growth inhibition) at 200 ppm [6] | mortality at 200 ppm [7] | percent effect (mortality or growth inhibition) at 200 ppm [8]

CCS(=O)(=O)c1cc(C(C)(C)C#N)cnc1N1Cc2cc3c(cc2C1=O)OC(F)(F)O3 [Compound P22, 2-[6-(2,2-difluoro-7-oxo-5H-[1,3]dioxolo[4,5-f]isoindol-6-yl)-5-ethylsulfonyl-3-pyridyl]-2-methyl-propanenitrile]
≥ 80%: percent effect (mortality or growth inhibition) at 200 ppm [1] | mortality at 12.5 ppm [2] | percent control (mortality, anti-feedant effect or growth inhibition) at 200 ppm [4] | percent effect (mortality or growth inhibition) at 200 ppm [5] | percent control (mortality, anti-feedant effect or growth inhibition) at 200 ppm [6] | mortality at 200 ppm [7] | percent effect (mortality or growth inhibition) at 200 ppm [8]

CCS(=O)(=O)c1cc(C(C)(F)F)cnc1N1Cc2cc3c(cc2C1=O)OC(F)(F)O3 [Compound P23, 6-[5-(1,1-difluoroethyl)-3-ethylsulfonyl-2-pyridyl]-2,2-difluoro-5H-[1,3]dioxolo[4,5-f]isoindol-7-one]
≥ 80%: mortality at 12.5 ppm [2] | percent control (mortality, anti-feedant effect or growth inhibition) at 200 ppm [4] | percent control (mortality, anti-feedant effect or growth inhibition) at 200 ppm [6] | mortality at 200 ppm [7] | percent effect (mortality or growth inhibition) at 200 ppm [8]

CCS(=O)(=O)c1c(N2Cc3cc4c(cc3C2=O)OC(F)(F)O4)nc(C2CC2)n1C [Compound P24, 6-(2-cyclopropyl-5-ethylsulfonyl-1-methyl-imidazol-4-yl)-2,2-difluoro-5H-[1,3]dioxolo[4,5-f]isoindol-7-one]
≥ 80%: mortality at 24 ppm [9] | percent effect (mortality or growth inhibition) at 200 ppm [1] | mortality at 200 ppm [3] | percent control (mortality, anti-feedant effect or growth inhibition) at 200 ppm [4] | percent effect (mortality or growth inhibition) at 200 ppm [5] | percent control (mortality, anti-feedant effect or growth inhibition) at 200 ppm [6] | percent effect (mortality or growth inhibition) at 200 ppm [8]

CCS(=O)(=O)c1cc(OC(C)(C)C#N)cnc1N1Cc2cc3c(cc2C1=O)OC(F)(F)O3 [Compound P25, 2-[[6-(2,2-difluoro-7-oxo-5H-[1,3]dioxolo[4,5-f]isoindol-6-yl)-5-ethylsulfonyl-3-pyridyl]oxy]-2-methyl-propanenitrile]
≥ 80%: percent effect (mortality or growth inhibition) at 200 ppm [1] | mortality at 12.5 ppm [2] | mortality at 200 ppm [3] | percent control (mortality, anti-feedant effect or growth inhibition) at 200 ppm [4] | percent effect (mortality or growth inhibition) at 200 ppm [5] | percent control (mortality, anti-feedant effect or growth inhibition) at 200 ppm [6] | mortality at 200 ppm [7] | percent effect (mortality or growth inhibition) at 200 ppm [8]
